The results in this text go back to ChEMBL document CHEMBL6083262, “Stereorandomized Oncocins with Preserved Ribosome Binding and Antibacterial Activity” (J Med Chem, 2024).

Converted amounts (≈) assume the structure as drawn. The source made the active and inactive calls. Non-standard residues stand in square brackets, D forms with d. Residues, ends and D or L forms follow the SMILES beside them. ξ: configuration not given here. ξY = NC(Cc1ccc(O)cc1)C(=O)O; ξR = N=C(N)NCCCC(N)C(=O)O; ξD = NC(CC(=O)O)C(=O)O; ξN = NC(=O)CC(N)C(=O)O; ξI = CCC(C)C(N)C(=O)O; ξL = CC(C)CC(N)C(=O)O; ξK = NCCCCC(N)C(=O)O; ξV = CC(C)C(N)C(=O)O; ξP = O=C(O)C1CCCN1

The test system of series [1] is Escherichia coli. Briefly: Antimicrobial activity against Escherichia coli W3110 incubated for 16 to 20 hrs in 12.5 % muller hinton medium by broth microdilution method. The series is classed as functional. As to conditions: time 16-20 hrs.
Series [2] deals with Acinetobacter baumannii. Briefly: Antimicrobial activity against Acinetobacter baumannii ATCC 19606 incubated for 16 to 20 hrs in 12.5 % muller hinton medium by broth microdilution method. The class given is functional. To be noted: time 16-20 hrs. Background: Broth dilution looks for growth in wells or tubes with falling amounts of substance.
In series [3] the test system is Staphylococcus aureus. Briefly: Antimicrobial activity against methicillin-resistant Staphylococcus aureus COL incubated for 16 to 20 hrs in full muller hinton medium by broth microdilution method. The class given is functional. As to conditions: time 16-20 hrs.
The nature of series [4]: Hemolytic activity in human RBC incubated for 4 hrs. As to conditions: erythrocyte. The series is classed as toxicity, cell-based.
For series [5], the system named is Pseudomonas aeruginosa. Briefly: Antimicrobial activity against Pseudomonas aeruginosa PAO1 incubated for 16 to 20 hrs in full muller hinton medium by broth microdilution method. The series is classed as functional. To be noted: time 16-20 hrs.
Series [6] has as its system Escherichia coli. Briefly: Antimicrobial activity against Escherichia coli W3110 incubated for 16 to 20 hrs in full muller hinton medium by broth microdilution method. The class given is functional. As to conditions: time 16-20 hrs.
For series [7], the system named is Pseudomonas aeruginosa. Briefly: Antibacterial activity against multidrug-resistant Pseudomonas aeruginosa PA14 4.18 harboring pmrB mutant incubated for 16 to 20 hrs in full muller hinton medium by broth microdilution method. To be noted: time 16-20 hrs. The class given is functional.
The test system of series [8] is Enterobacter cloacae. Briefly: Antibacterial activity against multidrug-resistant Enterobacter cloacae incubated for 16 to 20 hrs in full muller hinton medium by broth microdilution method. As to conditions: time 16-20 hrs. The series is classed as functional.
For series [9], the system named is rRNA. Briefly: Binding affinity to [gamma32 P-ATP] labeled Escherichia coli MG1655 23S ribosomal RNA (5-CCCTTGGGACCTACTTC-3') at U2506 position assessed as increase in band intensity at 1 uM incubated for 2.5 hrs in full muller hinton medium by CMCT based gel electrophoresis. The series is classed as nucleic-acid assay.
The subject of series [10] is Pseudomonas aeruginosa. Briefly: Antibacterial activity against multidrug-resistant Pseudomonas aeruginosa PA14 incubated for 16 to 20 hrs in full muller hinton medium by broth microdilution method. As to conditions: time 16-20 hrs. The series is classed as functional.
For series [11], the system named is Pseudomonas aeruginosa. Briefly: Antibacterial activity against multidrug-resistant Pseudomonas aeruginosa clinical isolate ZEM-1A incubated for 16 to 20 hrs in 12.5 % muller hinton medium by broth microdilution method. The class given is functional. To be noted: time 16-20 hrs.
The subject of series [12] is Klebsiella pneumoniae. Briefly: Antibacterial activity against multidrug-resistant Klebsiella pneumoniae clinical isolate OXA-48 incubated for 16 to 20 hrs in full muller hinton medium by broth microdilution method. The series is classed as functional. To be noted: time 16-20 hrs.
In series [13] the test system is Pseudomonas aeruginosa. Briefly: Antibacterial activity against multidrug-resistant Pseudomonas aeruginosa PA14 2P4 harboring pmrB mutant incubated for 16 to 20 hrs in full muller hinton medium by broth microdilution method. The class given is functional. To be noted: time 16-20 hrs.
Series [14] relates to Klebsiella pneumoniae. Briefly: Antimicrobial activity against Klebsiella pneumoniae NCTC 418 incubated for 16 to 20 hrs in 12.5 % muller hinton medium by broth microdilution method. The class given is functional. To be noted: time 16-20 hrs.
In series [15] the test system is Pseudomonas aeruginosa. Briefly: Antimicrobial activity against Pseudomonas aeruginosa PAO1 incubated for 16 to 20 hrs in 12.5 % muller hinton medium by broth microdilution method. The class given is functional. To be noted: time 16-20 hrs.
The test system of series [16] is Klebsiella pneumoniae. Briefly: Antibacterial activity against multidrug-resistant Klebsiella pneumoniae clinical isolate OXA-48 incubated for 16 to 20 hrs in 12.5 % muller hinton medium by broth microdilution method. The series is classed as functional. To be noted: time 16-20 hrs.
The test system of series [17] is Pseudomonas aeruginosa. Briefly: Antibacterial activity against multidrug-resistant Pseudomonas aeruginosa PA14 4.13 harboring phoQ mutant incubated for 16 to 20 hrs in full muller hinton medium by broth microdilution method. The series is classed as functional. To be noted: time 16-20 hrs.
Series [18] has as its system Klebsiella pneumoniae. Briefly: Antimicrobial activity against Klebsiella pneumoniae NCTC 418 incubated for 16 to 20 hrs in full muller hinton medium by broth microdilution method. The class given is functional. To be noted: time 16-20 hrs.
Series [19] has as its system Pseudomonas aeruginosa. Briefly: Antibacterial activity against multidrug-resistant Pseudomonas aeruginosa clinical isolate ZEM9A incubated for 16 to 20 hrs in full muller hinton medium by broth microdilution method. To be noted: time 16-20 hrs. The series is classed as functional.
Series [20] has as its system Pseudomonas aeruginosa. Briefly: Antibacterial activity against multidrug-resistant Pseudomonas aeruginosa clinical isolate ZEM-1A incubated for 16 to 20 hrs in full muller hinton medium by broth microdilution method. To be noted: time 16-20 hrs. The series is classed as functional.
For series [21], the system named is Staphylococcus aureus. Briefly: Antimicrobial activity against methicillin-resistant Staphylococcus aureus COL incubated for 16 to 20 hrs in 12.5 % muller hinton medium by broth microdilution method. The class given is functional. As to conditions: time 16-20 hrs.

In general, MIC refers to the smallest concentration in the dilution series that meets the test's criterion for growth inhibition. With `CC[C@H](C)[C@H](NC(=O)[C@H](CCCNC(=N)N)NC(=O)[C@H](CCCNC(=N)N)NC(=O)[C@@H]1CCCN1C(=O)[C@@H]1CCCN1C(=O)[C@H](CCCNC(=N)N)NC(=O)[C@@H]1CCCN1C(=O)[C@H](CCCNC(=N)N)NC(=O)[C@@H]1CCCN1C(=O)[C@H](CC(C)C)NC(=O)[C@H](Cc1ccc(O)cc1)NC(=O)[C@@H]1CCCN1C(=O)[C@@H]1CCCN1C(=O)C(CCCCN)NC(=O)C(CC(=O)O)NC(=O)C(N)C(C)C)C(=O)N[C@@H](Cc1ccc(O)cc1)C(=O)N[C@@H](CC(N)=O)C(=O)N[C@@H](CCCNC(=N)N)C(N)=O` (stereo not given in full) (H-[ξV][ξD][ξK]PPYLPRPRPPRRIYNR-NH2), the MIC is 2 µg/mL (≈ 0.837 µM) in series [1], 8 µg/mL (≈ 3.35 µM) in series [2], above 64 µg/mL in series [3] and above 64 µg/mL in [5]. The compound further returned an MHC in [4] above 1000 µg/mL.

On to `CCC(C)C(NC(=O)C(CCCNC(=N)N)NC(=O)[C@H](CCCNC(=N)N)NC(=O)[C@@H]1CCCN1C(=O)[C@@H]1CCCN1C(=O)[C@H](CCCNC(=N)N)NC(=O)[C@@H]1CCCN1C(=O)[C@H](CCCNC(=N)N)NC(=O)[C@@H]1CCCN1C(=O)[C@H](CC(C)C)NC(=O)[C@H](Cc1ccc(O)cc1)NC(=O)[C@@H]1CCCN1C(=O)[C@@H]1CCCN1C(=O)C(CCCCN)NC(=O)C(CC(=O)O)NC(=O)C(N)C(C)C)C(=O)NC(Cc1ccc(O)cc1)C(=O)NC(CC(N)=O)C(=O)NC(CCCNC(=N)N)C(N)=O` (stereo not given in full) (H-[ξV][ξD][ξK]PPYLPRPRPPR[ξR][ξI][ξY][ξN][ξR]-NH2), for which the MIC in series [1] is 1 µg/mL (≈ 0.418 µM); in series [2], 4 µg/mL (≈ 1.67 µM); in series [3], above 64 µg/mL; in [5] it was above 64 µg/mL; in series [6], 8 µg/mL (≈ 3.35 µM). This compound showed an MHC in [4] above 1000 µg/mL.

As for `CC[C@H](C)[C@H](NC(=O)[C@H](CCCNC(=N)N)NC(=O)C(CCCNC(=N)N)NC(=O)C1CCCN1C(=O)C1CCCN1C(=O)C(CCCNC(=N)N)NC(=O)C1CCCN1C(=O)C(CCCNC(=N)N)NC(=O)C1CCCN1C(=O)C(CC(C)C)NC(=O)C(Cc1ccc(O)cc1)NC(=O)C1CCCN1C(=O)C1CCCN1C(=O)C(CCCCN)NC(=O)C(CC(=O)O)NC(=O)C(N)C(C)C)C(=O)N[C@@H](Cc1ccc(O)cc1)C(=O)N[C@@H](CC(N)=O)C(=O)N[C@@H](CCCNC(=N)N)C(N)=O` (stereo not given in full) (H-[ξV][ξD][ξK][ξP][ξP][ξY][ξL][ξP][ξR][ξP][ξR][ξP][ξP][ξR]RIYNR-NH2), the MIC is above 64 µg/mL in series [7]; above 64 µg/mL in series [8]; above 64 µg/mL in series [10]; 4 µg/mL (≈ 1.67 µM) in series [1]; above 64 µg/mL in [11]; above 64 µg/mL in series [12]. The MIC in series [13] was above 64 µg/mL; in series [3], above 64 µg/mL; in series [14], above 16 µg/mL; in [15], above 16 µg/mL; in [16], above 64 µg/mL; in series [17], above 64 µg/mL. Also, the MIC in series [18], in [5], in series [19], in series [20] and in series [21] was above 64 µg/mL each time. Further, in [9], the outcome was inactive. For the same compound, in series [4], the MHC is above 1000 µg/mL.
